Reference: patent US8084394B2, “Method for the control of harmful micro-organisms and insects in crop protection with means of dipole-electrical air-jet spray-technology, ozonated water and UV-C irradiation” (priority 2003, dated 2011)

Legend:
[1] = stability (half-life) of ozone as gas and in water; assay type: physicochemical; settings: new injection technique with inorganic wetting agent; threefold
Procedure: Ozone is a highly unstable molecule in gaseous form which disintegrated in a short period of time (half-life time ca. 20 minutes) again in oxygen.
With this new injection technique of the extensive mixing of ozone with the spray waters and with the combination of an inorganic wetting agent, the ozone concentration in the dissolved gas bubbles can be up to 17% and has a threefold capacity in the water (up to 1 hour) the fact that ozone gas is transforming to oxygen.
The half-life time of Ozone in water is approximately 2 minutes, in other words the ozone concentration in water is reduced by half every 2 minutes.

[2] = cited from earlier work
[3] = cited from earlier work; remark: listed apart in the source
[4] = tested on: microorganisms; settings: cited from earlier work

SMILES: O=[O+][O-] [Ozone]
- capacity (persistence) of ozone in the water [1]: up to 1 hour
- half-life time ([2]; gaseous form, disintegration to oxygen): ca. 20 minutes
- half-life time of Ozone in water ([2]; in water): approximately 2 minutes
- exposition concentration unproblematic for permanent exposure [3]: 0.1 mg per m3/air
- speed of destruction of microorganisms relative to chlorine ([4]; faster than chlorine): 3125 times
- reactivity relative to chlorine ([4]; more reactive than chlorine): 51 times
